{
  "source": "paper PMC10222203",
  "about": "(Pharmaceutics, 2023)",
  "key": {"[1]": {"details": "rat", "procedure": "(§1) In short, lung slices were prepared by performing an in situ perfusion of the lungs of the rats with physiological saline and then filling them with agarose Type VII-A to facilitate slicing. Slices of 500 µm thickness were prepared using the Leica VT1200 microtome slicer (Leica Microsystems, Wetzlar, Germany). […] After a 5 h incubation at 37 °C in an incubated shaker (MaxQ4450 Thermo Fisher Scientific, NinoLab, Stockholm, Sweden) with a rotation speed of 45 rpm, the buffer and lung slices were sampled. To match the matrix of the lung slice samples, 200 μL of aECF was mixed with 200 μL of blank agarose-filled lung homogenate (1:4, w:v). The lung slices were individually removed, dried on filter paper, weighed, and thereafter homogenized in 9 volumes (w:v) of aECF with an ultrasonic processor (VCX-130; Sonics, Chemical Instruments AB, Stockholm, Sweden). All samples were stored at −20 °C pending LC-MS/MS analysis. Assuming that at equilibrium the concentration of the peptide in virtually protein-free buffer is equal to the interstitial fluid concentration in the lung slice, the Vu,lung (mL/g lung) was estimated using Equation (4) as a ratio of the amount of compound in the lung slice (Alung, nanomoles g lung) to the measured final buffer concentration (Cbuffer, micromole/L). […]"}, "lung slices": {"system": "lung slices", "details": "rat lung slices, 200 nM, 5 h, 37 °C", "procedure": "as §1"}, "[2]": {"details": "rat, tissue homogenate"}, "in vitro": {"experiment": "in vitro", "details": "rat, undiluted plasma, pH 7.4, Fraction unbound in plasma, fu,plasma, equilibrium dialysis 6 h 37 °C", "quoted_text": "Peptide binding to plasma proteins, brain tissue homogenate, and lung tissue homogenate as well as to neuronal and astrocyte cell culture homogenates was investigated using equilibrium dialysis [47]. Undiluted plasma and brain from three peptide-naïve rats were used in the experiment. The brain homogenate was prepared by homogenizing 1 part brain with 4 parts of phosphate-buffered saline (PBS, pH 7.4). […] Semi-permeable membranes with a molecular weight cut-off of 12–14 kDa were used and placed in an HTD96b apparatus (HTDialysis, Gales Ferry, CT, USA). The undiluted plasma and respective homogenates were spiked with individual peptide to a concentration of 1 µM and were dialyzed against PBS (pH 7.4). Five technical replicates were prepared per biological replicate. The experiment was run for 6 h at 37 °C in a MaxQ4450 shaker (Thermo Fisher Scientific, NinoLab, Sweden) at 200 rpm. […] Aliquots (80 µL) were taken from the buffer and plasma/homogenate sides. To compensate for any differences in matrix during bioanalysis, the plasma and homogenate samples were mixed with equal volumes of blank buffer, and the buffer samples were mixed with an equal volume of relevant blank plasma/homogenate. Spiked plasma and respective homogenate samples were incubated to control for relative recovery and thermal stability of the peptides in respective matrices.\nThe unbound fraction in undiluted plasma was calculated using Equation (5), where Cbuffer is the unbound concentration of peptide in the buffer and Cplasma is the total concentration of peptide in plasma at 6 h. The binding of peptide in various homogenates was assessed in two steps. First, the fraction of unbound peptide in the diluted homogenate, fu,h,D, was calculated using Equation (6), where Chomogenate is the total concentration of peptide in respective homogenate at 6 h. Second, the correction for the dilution was implemented as described in Equation (7), where D is the dilution factor used in the preparation [47]. D was 5 for brain and lung homogenates and on average 35.3 for the cell culture studies, as determined based on the total protein content and the total volume of lysate. (5) fu,plasma=Cbuffer/Cplasma (6) fu,h,D=Cbuffer/Chomogenate (7) fu,tissue/cell=1/D/((1/fu,h,D )−1)+1/D"}, "[3]": {"parameters": "method as in PubChem", "details": "estimates from PubChem; ref PubChem; cited from earlier work"}},
  "data": [
    {"smiles": "CC(C)C[C@@H]1NC(=O)CNC(=O)[C@H](CC(N)=O)NC(=O)[C@H](CCCNC(=N)N)NC(=O)[C@H]([C@@H](C)O)NC(=O)[C@@H]2CSSC[C@@H]3NC(=O)[C@H]([C@@H](C)O)NC(=O)CNC(=O)CNC(=O)[C@H](C(C)C)NC(=O)[C@@H]4CSSC[C@H](NC(=O)[C@H]([C@@H](C)O)NC(=O)[C@H](CSSC[C@H](NC(=O)[C@H](C(C)C)NC(=O)[C@@H]5CCCN5C1=O)C(=O)NCC(=O)N[C@@H](CCC(=O)O)C(=O)N[C@@H]([C@@H](C)O)C(=O)N4)NC(=O)CNC(=O)[C@@H]1CCCN1C(=O)[C@H]([C@@H](C)O)NC(=O)[C@H](CC(N)=O)NC3=O)C(=O)N[C@@H](CO)C(=O)N[C@@H](Cc1c[nH]c3ccccc13)C(=O)N1CCC[C@H]1C(=O)N[C@@H](C(C)C)C(=O)N2", "note": "[Kalata B1]", "values": [
      {"measurement": "Kp uu", "setting": "[1]", "result": "0.195 ± 0.107"},
      {"measurement": "Vu,lung", "setting": "lung slices", "result": 1.23, "unit": "mL/g lung"},
      {"measurement": "fraction unbound", "setting": "[2]", "result": "0.0377 ± 0.0079"}
    ]},
    {"smiles": "CC[C@H](C)[C@@H]1NC(=O)[C@@H]2CCCN2C(=O)[C@@H]2CCCN2C(=O)[C@H]([C@@H](C)CC)NC(=O)[C@H](CO)NC(=O)[C@H](CCCCN)NC(=O)[C@H]([C@@H](C)O)NC(=O)[C@@H]2CSSC[C@H](NC1=O)C(=O)N[C@@H](Cc1ccccc1)C(=O)N1CCC[C@H]1C(=O)N[C@@H](CC(=O)O)C(=O)NCC(=O)N[C@@H](CCCNC(=N)N)C(=O)N2", "note": "[SFTI-1, sunflower trypsin inhibitor-1]", "values": [
      {"measurement": "fraction unbound at 6 h, 1 µM", "setting": "in vitro", "result": 0.94},
      {"measurement": "Predicted net charge", "setting": "[3]", "result": 0}
    ]}
  ]
}
